According to PMC10702058, “Phase I dose escalation study and pilot efficacy analysis of LXI-15029, a novel mTOR dual inhibitor, in Chinese subjects with advanced malignant solid tumors” (BMC Cancer, 2023):
Entries after “also recorded” stand apart in the source; their conditions may differ.

What was measured:
[1] = Phase I dose escalation: safety and tolerability (DLT, MTD, adverse events, NCI-CTCAE 4.03)
[2] = system: advanced malignant solid tumors; test: Investigator-assessed antitumor effect (RECIST 1.1: ORR, DCR, PFS)
Protocol: All safety, tolerance, PK, and antitumor data from each dose group were tabulated and summarized according to the statistical analysis plan. The statistical analysis of the study was descriptive. The continuous variables were described as mean ± standard deviation or median (minimum, maximum). […] The categorical variables were described as n (%). PFS was summarized using the Kaplan–Meier method. […] All data processing, summaries, and analyses were performed using SAS 9.4 (SAS Institute, Cary, NC, USA).

CNC(=O)c1cccc(-c2ccc3c(N4C5CCC4COC5)nc(N4CCOC[C@@H]4C)nc3n2)c1 [LXI-15029]
≥ 10% TRAE: Sinus bradycardia ([1]; 80 mg BID (n = 4)): 1 (25.0) n (%)
Patients with any TEAE ([1]; 110 mg BID (n = 3)): 3 (100.0) n (%)
Patients with any TEAE, maximum CTCAE Grade 1 ([1]; 110 mg BID (n = 3)): 3 (100.0) n (%)
Patients with any TEAE, maximum CTCAE Grade 2 ([1]; 110 mg BID (n = 3)): 0 n (%)
Patients with any TEAE, maximum CTCAE Grade 3 ([1]; 110 mg BID (n = 3)): 0 n (%)
≥ 10% TRAE: ALT increased ([1]; 110 mg BID (n = 3)): 1 (33.3) n (%)
≥ 10% TRAE: AST increased ([1]; 110 mg BID (n = 3)): 2 (66.7) n (%)
≥ 10% TRAE: Decreased appetite ([1]; 110 mg BID (n = 3)): 0 n (%)
≥ 10% TRAE: Diarrhea ([1]; 110 mg BID (n = 3)): 0 n (%)
≥ 10% TRAE: ECG QT prolonged ([1]; 110 mg BID (n = 3)): 2 (66.7) n (%)
≥ 10% TRAE: Fatigue ([1]; 110 mg BID (n = 3)): 0 n (%)
≥ 10% TRAE: GGT increased ([1]; 110 mg BID (n = 3)): 0 n (%)
≥ 10% TRAE: Hypercholesterolemia ([1]; 110 mg BID (n = 3)): 0 n (%)
≥ 10% TRAE: Hypertriglyceridemia ([1]; 110 mg BID (n = 3)): 0 n (%)
≥ 10% TRAE: LDL increased ([1]; 110 mg BID (n = 3)): 0 n (%)
≥ 10% TRAE: Leukocytopenia ([1]; 110 mg BID (n = 3)): 1 (33.3) n (%)
≥ 10% TRAE: Neutropenia ([1]; 110 mg BID (n = 3)): 0 n (%)
≥ 10% TRAE: Sinus bradycardia ([1]; 110 mg BID (n = 3)): 0 n (%)
Patients with any TEAE ([1]; 150 mg BID (n = 4)): 4 (100.0) n (%)
Patients with any TEAE, maximum CTCAE Grade 1 ([1]; 150 mg BID (n = 4)): 2 (50.0) n (%)
Patients with any TEAE, maximum CTCAE Grade 2 ([1]; 150 mg BID (n = 4)): 1 (25.0) n (%)
Patients with any TEAE, maximum CTCAE Grade 3 ([1]; 150 mg BID (n = 4)): 1 (25.0) n (%)
≥ 10% TRAE: ALT increased ([1]; 150 mg BID (n = 4)): 2 (50.0) n (%)
≥ 10% TRAE: AST increased ([1]; 150 mg BID (n = 4)): 2 (50.0) n (%)
≥ 10% TRAE: Decreased appetite ([1]; 150 mg BID (n = 4)): 1 (25.0) n (%)
≥ 10% TRAE: Diarrhea ([1]; 150 mg BID (n = 4)): 0 n (%)
≥ 10% TRAE: ECG QT prolonged ([1]; 150 mg BID (n = 4)): 0 n (%)
≥ 10% TRAE: Fatigue ([1]; 150 mg BID (n = 4)): 0 n (%)
≥ 10% TRAE: GGT increased ([1]; 150 mg BID (n = 4)): 2 (50.0) n (%)
≥ 10% TRAE: Hypercholesterolemia ([1]; 150 mg BID (n = 4)): 0 n (%)
≥ 10% TRAE: Hypertriglyceridemia ([1]; 150 mg BID (n = 4)): 1 (25.0) n (%)
≥ 10% TRAE: LDL increased ([1]; 150 mg BID (n = 4)): 0 n (%)
≥ 10% TRAE: Leukocytopenia ([1]; 150 mg BID (n = 4)): 3 (75.0) n (%)
≥ 10% TRAE: Neutropenia ([1]; 150 mg BID (n = 4)): 3 (75.0) n (%)
≥ 10% TRAE: Sinus bradycardia ([1]; 150 mg BID (n = 4)): 1 (25.0) n (%)
dose-limiting toxicity (DLT) ([1]; 150 mg BID group, one participant, within the DLT observation window): grade 3 increased alanine aminotransferase (ALT); also recorded: Only one DLT was observed
Patients with any TEAE, maximum CTCAE Grade 1 ([1]; Total (n = 24)): 15 (62.5) n (%)
Patients with any TEAE, maximum CTCAE Grade 2 ([1]; Total (n = 24)): 6 (25.0) n (%)
Patients with any TEAE, maximum CTCAE Grade 3 ([1]; Total (n = 24)): 1 (4.2) n (%)
≥ 10% TRAE: ALT increased ([1]; Total (n = 24)): 5 (20.8) n (%)
≥ 10% TRAE: AST increased ([1]; Total (n = 24)): 5 (20.8) n (%)
≥ 10% TRAE: Decreased appetite ([1]; Total (n = 24)): 3 (12.5) n (%)
≥ 10% TRAE: Diarrhea ([1]; Total (n = 24)): 4 (16.7) n (%)
≥ 10% TRAE: ECG QT prolonged ([1]; Total (n = 24)): 5 (20.8) n (%)
≥ 10% TRAE: Fatigue ([1]; Total (n = 24)): 4 (16.7) n (%)
≥ 10% TRAE: GGT increased ([1]; Total (n = 24)): 4 (16.7) n (%)
≥ 10% TRAE: Hypercholesterolemia ([1]; Total (n = 24)): 3 (12.5) n (%)
≥ 10% TRAE: Hypertriglyceridemia ([1]; Total (n = 24)): 5 (20.8) n (%)
≥ 10% TRAE: LDL increased ([1]; Total (n = 24)): 3 (12.5) n (%)
≥ 10% TRAE: Leukocytopenia ([1]; Total (n = 24)): 10 (41.7) n (%)
≥ 10% TRAE: Neutropenia ([1]; Total (n = 24)): 4 (16.7) n (%)
≥ 10% TRAE: Sinus bradycardia ([1]; Total (n = 24)): 4 (16.7) n (%)
TRAEs of CTCAE grade 1 ([1]; all doses): 62.5%
TRAEs of CTCAE grade 2 ([1]; all doses): 25%
other serious treatment-related AEs (besides the DLT) ([1]; all doses): No other serious treatment-related AEs were reported
mean ALT change from baseline ([1]; all doses except the 10-mg and 80-mg doses): increased slightly
mean AST change from baseline ([1]; all doses except the 10-mg, 60-mg, and 80-mg doses): increased slightly
treatment-related AE: hypertriglyceridemia ([1]; all doses, 24 patients): 20.8%
treatment-related AE: increased alanine aminotransferase ([1]; all doses, 24 patients): 20.8%
treatment-related AE: increased aspartate aminotransferase ([1]; all doses, 24 patients): 20.8%
treatment-related AE: leukocytopenia ([1]; all doses, 24 patients): 41.7%
treatment-related AE: prolonged electrocardiogram QT interval ([1]; all doses, 24 patients): 20.8%
deaths within 28 days of the last dose ([1]; attributed to disease progression unrelated to treatment): One
association of AE rates, laboratory parameters, vital signs, ECG, other safety data with dose levels ([1]; descriptive results): No apparent associations
participants with TEAEs leading to LXI-15029 discontinuation ([1]; of 24 participants): Three
participants with a TRAE leading to LXI-15029 discontinuation ([1]; of 24 participants): one
participants with a serious TRAE ([1]; of 24 participants): one
participants with serious TEAEs ([1]; of 24 participants): Five
participants with treatment-emergent AEs (TEAEs) ([1]; of 24 participants): 24 participants
participants with treatment-related AEs (TRAEs) ([1]; of 24 participants): 22 participants
patients with TEAEs occurring within 30 days after LXI-15029 discontinuation ([1]; of 24 participants): Eleven
treatment discontinuation because of AEs ([1]; of 24 participants): 2 (8.3%) n (%)
treatment discontinuation because of DLT ([1]; of 24 participants): 1 (4.2%) n (%)
tolerability ([1]; oral BID, 10 to 150 mg): well tolerated at all doses; also recorded: well tolerated at all dose levels; also recorded: well tolerable
maximum tolerated dose (MTD) ([1]; oral monotherapy, Chinese patients with advanced solid tumors): 110 mg BID
disease control rate (DCR) ([2]; 8/20 evaluable, 95% CI 21.7–60.6): 40%
complete or partial response (CR or PR) ([2]; 20 evaluable participants): No participants achieved CR or PR
median progression-free survival ([2]; evaluable patients, overall, from first dose): 29 days
relationship between Ctrough and median PFS or DCR ([2]; exposure-efficacy analysis): no relationship was found
DCR-dose correlation ([2]; in vivo): No DCR-dose correlation was observed
patients with stable disease ([2]; of 20 evaluable): Eight
duration of SD ([2]; one participant with fibrosarcoma, 20 mg BID): 344 days
median PFS ([2]; patients with breast cancer, 95% CI: 0.89–4.63): 0.95 months
median PFS ([2]; patients with sarcoma, 95% CI: 0.92–11.33): 0.97 months
